The numbers were not newly measured in publication PMC8198792, “Prediction of Anticancer Peptides with High Efficacy and Low Toxicity by Hybrid Model Based on 3D Structure of Peptides” (International Journal of Molecular Sciences, 2021), which cites them from elsewhere.

Like-named read-outs stand apart in the source and are kept apart here.

The test system of one series is erythrocytes. The settings on record: cited from earlier work. An excerpt:
Supplement ijms-22-05630-s001.zip/Hemloytic Peptides(seguence).xlsx, sheet "HD1" | column: Activity || Supplement ijms-22-05630-s001.zip/Hemloytic Peptides(seguence).xlsx, sheet "HD2" | column: Activity || Supplement ijms-22-05630-s001.zip/Hemloytic Peptides(seguence).xlsx, sheet "HD3" | column: Activity

The subject of another series is cancer cell lines. The arrangement: method as in 6 sources, ref CancerPPD [45] and SATPdb ||| ref CancerPPD/SATPdb ||| ref CancerPPD, SATPdb, Swissprot (PDB) ||| ref CancerPPD/SATPdb/Swissprot(PDB) ||| ref CancerPPD / SATPdb ||| ... The settings on record: cited from earlier work. An excerpt: Supplement ijms-22-05630-s001.zip/ACPs(seguence).xlsx, sheet "D1" | column: Activity || Supplement ijms-22-05630-s001.zip/ACPs(seguence).xlsx, sheet "D2" | column: Activity || Supplement ijms-22-05630-s001.zip/ACPs(seguence).xlsx, sheet "D3" | column: Activity || (+ 2 further places)

Setting [1] is: Hemolytic peptides dataset HD2, label 1 = hemolytic, 0 = non-hemolytic, ref Hemolytik/SATPdb.
Where [2] appears, read: hemolytic peptides dataset HD3, 1 = hemolytic (positive set), 0 = non-hemolytic (negative set), labels taken from databases, ref Hemolytik/SATPdb.
Setting [3] is: ACPs dataset D3 (sheet "D3"), label 1 = ACP, 0 = non-ACP, ref CancerPPD/SATPdb.
Where [4] appears, read: ACPs dataset D4 (sheet "D4"), label 1 = ACP, 0 = non-ACP, ref CancerPPD / SATPdb.
[5] abbreviates: ACPs dataset D5, sheet "D5", label 1 = ACP, 0 = non-ACP, ref CancerPPD [45] and SATPdb.
[6] abbreviates: ACPs dataset D3 (supplement sheet "D3"), 1 = ACP, 0 = non-ACP, ref CancerPPD [45] and SATPdb.
[7] abbreviates: natural hemolytic peptide dataset HD1, label collected from databases, ref Hemolytik [49], SATPdb [34].
The mark [8] stands for this setting: ACPs dataset D1, label 1 = ACP, 0 = non-ACP (non-anticancer AMPs from SATPdb), ref CancerPPD/SATPdb.
The mark [9] stands for this setting: ACPs dataset D4 (sheet "D4"), label 1 = ACP (CancerPPD ID), 0 = non-ACP (non-anticancer AMP, SATPdb ID), ref CancerPPD [45] and SATPdb.

Turning to GFLSSLKKSLPKSXAHSK [satpdb13158], the Activity in the series on erythrocytes (setting [1]) is on record as 1; in the series with erythrocytes (setting [2]) it was 1; in the series with cancer cell lines (setting [3]), 0; with cancer cell lines (setting [4]) it was 0; in the series on cancer cell lines (setting [5]), 0.

In the case of ILPFKFPFFPFRR [satpdb11100], the Activity is 1 in the series on erythrocytes (setting [1]); 1 in the series with erythrocytes (setting [2]); 0 with cancer cell lines (setting [6]); 0 with cancer cell lines (setting [4]); 0 in the series with cancer cell lines (setting [5]).

Turning to VNSKKISPKSIKVSK [satpdb10612], the Activity in the series on erythrocytes (setting [1]) is recorded as 1; with erythrocytes (setting [2]), 1; in the series with cancer cell lines (setting [6]), 0; in the series on cancer cell lines (setting [4]) it was 0; in the series on cancer cell lines (setting [5]), 0.

Regarding “CGESCVFIPCISTLLGCSCKNKVCYRNGVIP [satpdb11124, hemolytic peptide, dataset HD1]”, the figures for the Activity in the series with erythrocytes (setting [2]), in the series on cancer cell lines (setting [8]) and in the series on cancer cell lines (setting [9]) were 1, 0 and 0, respectively. Besides, the “Activity (dataset HD1, hemolytic 1 / non-hemolytic 0)” value in the series with erythrocytes (setting [7]) is recorded as 1.

As for “PICKRNGLPVCGETCTLGTCYTQGCTCSW [satpdb10279, hemolytic peptide, dataset HD1]”, the Activity in the series with erythrocytes (setting [2]) is on record as 1; in the series with cancer cell lines (setting [8]) it was 0; with cancer cell lines (setting [9]) it was 0. In addition, the “Activity (dataset HD1, hemolytic 1 / non-hemolytic 0)” value with erythrocytes (setting [7]) was 1.

As to “CIAKGNGCQPSGVQGNCCSGHCHKEPGWVAGYCK [satpdb13088]”, the Activity in the series with erythrocytes (setting [1]), with erythrocytes (setting [2]), with cancer cell lines (setting [3]), in the series on cancer cell lines (setting [4]) and with cancer cell lines (setting [5]) was 0 in each case.

Turning to AKKVFKRLEKLFSKIQNDK [satpdb11343], the Activity with erythrocytes, in the series with cancer cell lines (setting [6]), in the series with cancer cell lines (setting [4]) and with cancer cell lines (setting [5]) was 0 each time.

With ILPWKWPKLPWRR [satpdb13392], the Activity in the series with erythrocytes, in the series on cancer cell lines (setting [3]), in the series with cancer cell lines (setting [4]) and with cancer cell lines (setting [5]) was 0 throughout.

With KLalKLALKALKAALKLA [satpdb12751], the Activity is recorded as 1 in the series on erythrocytes, 0 in the series with cancer cell lines (setting [3]), 0 with cancer cell lines (setting [4]) and 0 in the series on cancer cell lines (setting [5]).

On to LLIILRRRWRKQAKAKSK [satpdb12920], for which the Activity is reported as 1 in the series with erythrocytes, 0 with cancer cell lines (setting [3]), 0 with cancer cell lines (setting [4]) and 0 in the series on cancer cell lines (setting [5]).

Regarding LNWGALLKHLLK [satpdb12233], the Activity with erythrocytes was 1; with cancer cell lines (setting [3]), 0; in the series on cancer cell lines (setting [4]), 0; in the series on cancer cell lines (setting [5]) it was 0.

FLPLIGRVLSGIA [satpdb10103]: the Activity in the series on erythrocytes was 1; in the series on cancer cell lines (setting [6]), 0; with cancer cell lines (setting [4]) it was 0; in the series on cancer cell lines (setting [5]) it was 0.

In the case of GLLGPLLKIAAKVGKKLL [satpdb11754], the Activity in the series on erythrocytes is reported as 1; with cancer cell lines (setting [6]), 0; in the series on cancer cell lines (setting [4]), 0; in the series on cancer cell lines (setting [5]), 0.

As for “GRFKRFRKKFKKLFKKLSPVIPLLHL [satpdb13682]”, the Activity is on record as 1 in the series on erythrocytes, 0 in the series with cancer cell lines (setting [3]), 0 in the series on cancer cell lines (setting [4]) and 0 in the series with cancer cell lines (setting [5]).

On to “GLVTSLIKGAGKLLGGLFGSVTGGQS [satpdb13110, hemolytic peptide, dataset HD1]”, for which the Activity is 1 in the series with erythrocytes, 0 in the series with cancer cell lines (setting [8]) and 0 in the series on cancer cell lines (setting [4]). Besides, the “Activity (dataset HD1, hemolytic 1 / non-hemolytic 0)” value in the series on erythrocytes is given as 1.

Take “GLWSKIKTAGKSVAKAAAKAAVKAVTNAV [satpdb14676]”: in the series with erythrocytes, the Activity is 1 and the “Activity (dataset HD1, hemolytic 1 / non-hemolytic 0)” value is reported as 1.

Consider ILGKLLSTAAkLLSNL [satpdb12605], for which the Activity in the series with erythrocytes (setting [1]) and with erythrocytes (setting [2]) was 1 in each case.

As for KWKLKPLLKKLLKKL [satpdb10408], the Activity in the series with erythrocytes is given as 0.

KWKKLPKKLLKLL [satpdb21914]: in the series with erythrocytes, the Activity is 0.

For CKLLKTFLSKWIC [compound 3456], the Activity with erythrocytes is 1.

On to WLKKW [satpdb27168], for which the Activity in the series on erythrocytes (setting [1]) and in the series with erythrocytes (setting [2]) was 0 throughout.

KKKKKKAAWAAWAAWAA [satpdb17717]: in the series with erythrocytes, the Activity is on record as 0.

Take LKLFKKILKFL [satpdb12214]: in the series on erythrocytes, the Activity is recorded as 1.

On to RRGWVLALYLRYGRR [satpdb15589], for which, in the series on erythrocytes, the Activity is reported as 1 and the “Activity (dataset HD1, hemolytic 1 / non-hemolytic 0)” value is recorded as 1.

With “HALWMTLLKKVLKAAAKAALNAVLVGANA [satpdb12263]”, in the series with erythrocytes, the Activity is given as 1 and the “Activity (dataset HD1, hemolytic 1 / non-hemolytic 0)” value was 1.

For KAACAAKCLWR [satpdb24099], in the series with erythrocytes, the Activity is 0.

On to VGKTWIKVIRGIGKSKIKWQ [satpdb28870], for which, in the series on erythrocytes, the Activity is on record as 0 and the “Activity (dataset HD1, hemolytic 1 / non-hemolytic 0)” value is listed as 0.

Consider KKKKKKALFALWLAFLA [compound 1155], for which, in the series on erythrocytes, the Activity is reported as 1.

With FLSLIPHAINAVSAIAKHN [satpdb11891], in the series with erythrocytes, the Activity is recorded as 1.

With KWKKLLKKPLLKKLLKKL [satpdb12329], the Activity in the series with erythrocytes was 0.

Regarding KKAAHVGKHVGKAALTHYL [satpdb21325], the Activity in the series on erythrocytes is listed as 0.

As for “FKCRRWQWRWKKLGAKPVPIIYCNRRTGKCQRM [satpdb24174]”, in the series with erythrocytes, the Activity is given as 0 and the “Activity (dataset HD1, hemolytic 1 / non-hemolytic 0)” value is given as 0.

As to KWKLFKKIPLAKKF [satpdb27289], the Activity in the series on erythrocytes is on record as 0.

For GFLSILKKVLKVMAHMK [satpdb11385], the Activity in the series on erythrocytes (setting [1]) and with erythrocytes (setting [2]) was 1 each time.

For GWGSFFKKAAAVGKAVGKAALTAYL [satpdb15739], in the series on erythrocytes, the Activity is recorded as 1 and the “Activity (dataset HD1, hemolytic 1 / non-hemolytic 0)” value is listed as 1.

Consider WNPFKELERAGQRVRDAIISAAP [satpdb17819], for which, in the series with erythrocytes, the Activity is 0 and the “Activity (dataset HD1, hemolytic 1 / non-hemolytic 0)” value was 0.

“IKIPPIVKDTLKKVAKGVLSTIAGALST [satpdb27001]”: in the series on erythrocytes, the Activity is given as 0 and the “Activity (dataset HD1, hemolytic 1 / non-hemolytic 0)” value is on record as 0.

On to KWKFKKIPKFLHLAKKF [satpdb23702], for which the Activity in the series with erythrocytes (setting [1]) and in the series with erythrocytes (setting [2]) was 0 in each case.

As to “GFKLKGKAKISCLPNGQWSNFPPKCIRECAMVSS [satpdb25464]”, in the series on erythrocytes, the Activity is 0 and the “Activity (dataset HD1, hemolytic 1 / non-hemolytic 0)” value is reported as 0.

Take GIIKKIIKKI [satpdb26556]: the Activity in the series on erythrocytes was 0.

Regarding KWKLFKKIPHLAKKF [satpdb28955], the Activity in the series with erythrocytes is given as 0.

With GWANTLKNVAGGLCKITGAA [satpdb14607], in the series with erythrocytes, the Activity is 1 and the “Activity (dataset HD1, hemolytic 1 / non-hemolytic 0)” value is 1.

For the substance “MAFKKLEKVGRNIRDGIIKAGPAVAVIGQATSIARPTGK [satpdb16695]”, in the series on erythrocytes, the Activity was 0 and the “Activity (dataset HD1, hemolytic 1 / non-hemolytic 0)” value is 0.

With GCRFCCNCCPNMSGCGVCCRF [satpdb21740], the Activity in the series on erythrocytes (setting [2]) is 0. Besides, the “Activity (dataset HD1, hemolytic 1 / non-hemolytic 0)” value in the series on erythrocytes (setting [7]) was 0.

KLLKLLLKLLLKLLK [compound 3689]: in the series with erythrocytes, the Activity is given as 1.

In the case of SWSSFFKKAAHSGKHVGKSASTHYL [satpdb15741], in the series on erythrocytes, the Activity is 0.

On to EWGRRCCGWGPGRRYCRRWC [satpdb13121], for which the Activity with erythrocytes (setting [2]) is recorded as 0. Besides, in the series with erythrocytes (setting [7]), the “Activity (dataset HD1, hemolytic 1 / non-hemolytic 0)” value is listed as 0.

In the case of GIHDILKYGKPS [satpdb19051], in the series on erythrocytes, the Activity was 0 and the “Activity (dataset HD1, hemolytic 1 / non-hemolytic 0)” value was 0.

For the substance KKKKKKAAFALWLAFLA [compound 1154], the Activity with erythrocytes is 1.

Take GSKKPVPIIYANRRTGKAQRM [satpdb20538]: in the series with erythrocytes, the Activity is on record as 0 and the “Activity (dataset HD1, hemolytic 1 / non-hemolytic 0)” value is on record as 0.

For GKLNLFLSRLEILKLFVGAL [satpdb18533], in the series on erythrocytes, the Activity is recorded as 0 and the “Activity (dataset HD1, hemolytic 1 / non-hemolytic 0)” value is 0.

Regarding “CYCRIPACIAGERRYGTCIYQGRLWAFCC [satpdb11499]”, in the series with erythrocytes, the Activity was 1 and the “Activity (dataset HD1, hemolytic 1 / non-hemolytic 0)” value is given as 1.

Regarding KKVVFKVKFK [satpdb13312], the Activity in the series with erythrocytes is listed as 0.

Turning to KWKKLLKKPLKLKL [satpdb22005], in the series on erythrocytes, the Activity is on record as 0.

Consider “RGLRRLGRKIAHGVKKYGPTVKRIKRKA [satpdb15155]”, for which, in the series on erythrocytes, the Activity is 0.

With WKKIPKFLHLAKKF [satpdb14752], the Activity with erythrocytes is reported as 0.

With KKKKKKALFALWLAFAA [compound 1153], the Activity in the series on erythrocytes is listed as 1.

Take “CGESCVFIPCVTALLGCSCKSKVCYKNSIP [satpdb12547]”: the Activity in the series with erythrocytes (setting [2]) is listed as 1. In addition, the “Activity (dataset HD1, hemolytic 1 / non-hemolytic 0)” value in the series with erythrocytes (setting [7]) is given as 1.
